# Experimental data reported in PubChem BioAssay (NCI).
#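 GI50 = concentration required for 50% inhibition of growth. TGI: total growth inhibition.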
# Assays:
# Assay in all cases: NCI anticancer screen, dose series, 384-well format
# SR leukemia = tested on: SR leukemia
# 786-0 renal = tested on: 786-0 renal
# ACHN renal = tested on: ACHN renal
# SK-OV-3 ovarian = tested on: SK-OV-3 ovarian
# SW-620 colon = tested on: SW-620 colon
# SF-539 CNS = tested on: SF-539 CNS
# COLO 205 colon = tested on: COLO 205 colon
# A549 NSCLC = tested on: A549 NSCLC
# NCI/ADR-RES ovarian = tested on: NCI/ADR-RES ovarian
# RPMI-8226 leukemia = tested on: RPMI-8226 leukemia
# SN12C renal = tested on: SN12C renal
# IGROV1 ovarian = tested on: IGROV1 ovarian
# MOLT-4 leukemia = tested on: MOLT-4 leukemia
# M14 melanoma = tested on: M14 melanoma
# HCC-2998 colon = tested on: HCC-2998 colon
# MDA-MB-468 breast = tested on: MDA-MB-468 breast
# U251 glioblastoma = tested on: U251 glioblastoma
# HOP-92 NSCLC = tested on: HOP-92 NSCLC
# SK-MEL-5 melanoma = tested on: SK-MEL-5 melanoma
# MDA-MB-435 melanoma = tested on: MDA-MB-435 melanoma
# NCI-H23 lung = tested on: NCI-H23 lung
# UACC-62 melanoma = tested on: UACC-62 melanoma
# MALME-3M melanoma = tested on: MALME-3M melanoma
# HT29 colon = tested on: HT29 colon
# OVCAR-4 ovarian = tested on: OVCAR-4 ovarian
# KM12 colon = tested on: KM12 colon
# SF-268 CNS = tested on: SF-268 CNS
# PC-3 prostate = tested on: PC-3 prostate
# SNB-19 CNS = tested on: SNB-19 CNS
# SNB-75 CNS = tested on: SNB-75 CNS
# HL-60(TB) leukemia = tested on: HL-60(TB) leukemia
# HCT-15 colon = tested on: HCT-15 colon
# CAKI-1 renal = tested on: CAKI-1 renal
# RXF 393 renal = tested on: RXF 393 renal
# MDA-MB-231 breast = tested on: MDA-MB-231 breast
# NCI-H226 lung = tested on: NCI-H226 lung
# T-47D breast = tested on: T-47D breast
# HOP-62 NSCLC = tested on: HOP-62 NSCLC
# TK-10 renal = tested on: TK-10 renal
# OVCAR-5 ovarian = tested on: OVCAR-5 ovarian
# OVCAR-8 ovarian = tested on: OVCAR-8 ovarian
# UACC-257 melanoma = tested on: UACC-257 melanoma
# EKVX NSCLC = tested on: EKVX NSCLC
# UO-31 renal = tested on: UO-31 renal
# OVCAR-3 ovarian = tested on: OVCAR-3 ovarian
# DU-145 prostate = tested on: DU-145 prostate
# SK-MEL-28 melanoma = tested on: SK-MEL-28 melanoma
# HS 578T breast = tested on: HS 578T breast
# BT-549 breast = tested on: BT-549 breast
# K-562 leukemia = tested on: K-562 leukemia
# NCI-H460 NSCLC = tested on: NCI-H460 NSCLC
# A498 renal = tested on: A498 renal
# NCI-H322M lung = tested on: NCI-H322M lung
# MCF7 breast = tested on: MCF7 breast
# SF-295 CNS = tested on: SF-295 CNS
# LOX IMVI melanoma = tested on: LOX IMVI melanoma
# NCI-H522 lung = tested on: NCI-H522 lung
structure (smiles),measurement,setting,value
C[C@@]1(C(=O)Nc2ccc(F)nc2)CCCN1c1nc(Nc2cc(C3CC3)[nH]n2)c2cccn2n1,GI50,SR leukemia,0.18 µM
same,TGI,SR leukemia,0.336 µM
same,GI50,786-0 renal,2.12 µM
same,TGI,786-0 renal,11.3 µM
same,GI50,ACHN renal,2.43 µM
same,TGI,ACHN renal,16 µM
same,GI50,SK-OV-3 ovarian,2.69 µM
same,TGI,SK-OV-3 ovarian,14 µM
same,GI50,SW-620 colon,0.644 µM
same,TGI,SW-620 colon,14.4 µM
same,GI50,SF-539 CNS,1.91 µM
same,TGI,SF-539 CNS,11 µM
same,GI50,COLO 205 colon,< 0.01 µM
same,TGI,COLO 205 colon,0.189 µM
same,GI50,A549 NSCLC,0.63 µM
same,TGI,A549 NSCLC,15.4 µM
same,GI50,NCI/ADR-RES ovarian,2.36 µM
same,TGI,NCI/ADR-RES ovarian,10.7 µM
same,GI50,RPMI-8226 leukemia,0.201 µM
same,TGI,RPMI-8226 leukemia,0.491 µM
same,GI50,SN12C renal,2.07 µM
same,TGI,SN12C renal,6.96 µM
same,GI50,IGROV1 ovarian,1.72 µM
same,TGI,IGROV1 ovarian,7.19 µM
same,GI50,MOLT-4 leukemia,0.224 µM
same,TGI,MOLT-4 leukemia,0.439 µM
same,GI50,M14 melanoma,1.7 µM
same,TGI,M14 melanoma,16.8 µM
same,GI50,HCC-2998 colon,10.6 µM
same,TGI,HCC-2998 colon,22.7 µM
same,GI50,MDA-MB-468 breast,0.246 µM
same,TGI,MDA-MB-468 breast,0.561 µM
same,GI50,U251 glioblastoma,5.48 µM
same,TGI,U251 glioblastoma,19.4 µM
same,GI50,HOP-92 NSCLC,0.289 µM
same,TGI,HOP-92 NSCLC,2.68 µM
same,GI50,SK-MEL-5 melanoma,1.78 µM
same,TGI,SK-MEL-5 melanoma,15.9 µM
same,GI50,MDA-MB-435 melanoma,14.4 µM
same,TGI,MDA-MB-435 melanoma,27.6 µM
same,GI50,NCI-H23 lung,0.223 µM
same,TGI,NCI-H23 lung,3.87 µM
same,GI50,UACC-62 melanoma,1.75 µM
same,TGI,UACC-62 melanoma,15.7 µM
same,GI50,MALME-3M melanoma,0.356 µM
same,TGI,MALME-3M melanoma,16.6 µM
same,GI50,HT29 colon,< 0.01 µM
same,TGI,HT29 colon,10.5 µM
same,GI50,OVCAR-4 ovarian,0.935 µM
same,TGI,OVCAR-4 ovarian,4.21 µM
same,GI50,KM12 colon,0.03 µM
same,TGI,KM12 colon,0.204 µM
same,GI50,SF-268 CNS,1.44 µM
same,TGI,SF-268 CNS,6.55 µM
same,GI50,PC-3 prostate,2.67 µM
same,TGI,PC-3 prostate,14.4 µM
same,GI50,SNB-19 CNS,8.33 µM
same,TGI,SNB-19 CNS,29.3 µM
same,GI50,SNB-75 CNS,1.14 µM
same,TGI,SNB-75 CNS,3.57 µM
same,GI50,HL-60(TB) leukemia,< 0.01 µM
same,TGI,HL-60(TB) leukemia,0.126 µM
same,GI50,HCT-15 colon,0.703 µM
same,TGI,HCT-15 colon,12.2 µM
same,GI50,CAKI-1 renal,1.3 µM
same,TGI,CAKI-1 renal,5.28 µM
same,GI50,RXF 393 renal,2.25 µM
same,TGI,RXF 393 renal,12.7 µM
same,GI50,MDA-MB-231 breast,1.58 µM
same,TGI,MDA-MB-231 breast,12.5 µM
same,GI50,NCI-H226 lung,0.557 µM
same,TGI,NCI-H226 lung,7.05 µM
same,GI50,T-47D breast,0.651 µM
same,TGI,T-47D breast,14.3 µM
same,GI50,HOP-62 NSCLC,1.87 µM
same,TGI,HOP-62 NSCLC,13.2 µM
same,GI50,TK-10 renal,2.49 µM
same,TGI,TK-10 renal,20.1 µM
same,GI50,OVCAR-5 ovarian,1.5 µM
same,TGI,OVCAR-5 ovarian,8.62 µM
same,GI50,OVCAR-8 ovarian,4.09 µM
same,TGI,OVCAR-8 ovarian,18.7 µM
same,GI50,UACC-257 melanoma,0.694 µM
same,TGI,UACC-257 melanoma,16.4 µM
same,GI50,EKVX NSCLC,0.681 µM
same,TGI,EKVX NSCLC,9.59 µM
same,GI50,UO-31 renal,3.75 µM
same,TGI,UO-31 renal,18.2 µM
same,GI50,OVCAR-3 ovarian,0.842 µM
same,TGI,OVCAR-3 ovarian,9.82 µM
same,GI50,DU-145 prostate,0.995 µM
same,TGI,DU-145 prostate,12.5 µM
same,GI50,SK-MEL-28 melanoma,10.6 µM
same,TGI,SK-MEL-28 melanoma,22.7 µM
same,GI50,HS 578T breast,1.51 µM
same,TGI,HS 578T breast,3.8 µM
same,GI50,BT-549 breast,1.71 µM
same,TGI,BT-549 breast,7.62 µM
same,GI50,K-562 leukemia,3.81 µM
same,TGI,K-562 leukemia,15.4 µM
same,GI50,NCI-H460 NSCLC,0.239 µM
same,TGI,NCI-H460 NSCLC,1.17 µM
same,GI50,A498 renal,1.72 µM
same,TGI,A498 renal,17.1 µM
same,GI50,NCI-H322M lung,3.87 µM
same,TGI,NCI-H322M lung,20.1 µM
same,GI50,MCF7 breast,0.0388 µM
same,TGI,MCF7 breast,12.4 µM
same,GI50,SF-295 CNS,0.837 µM
same,TGI,SF-295 CNS,4.19 µM
same,GI50,LOX IMVI melanoma,1.93 µM
same,TGI,LOX IMVI melanoma,13 µM
same,GI50,NCI-H522 lung,0.864 µM
same,TGI,NCI-H522 lung,7.46 µM
